These results are taken from patent US11472803B2, “7-substituted 1-aryl-naphthyridine-3-carboxylic acid amides and use thereof” (Bayer Aktiengesellschaft, priority 2016, dated 2022).

pEC50: −log10 of the molar value.

In experiment [1] the target is T1, human M2 receptor (Homo sapiens, UniProt P08172).
T1 construct: expressed in transfected cells; host or cells: CHO-DUKX (CHO-DUKX-M2-GIRK)
T1 sequence (P08172 1-466): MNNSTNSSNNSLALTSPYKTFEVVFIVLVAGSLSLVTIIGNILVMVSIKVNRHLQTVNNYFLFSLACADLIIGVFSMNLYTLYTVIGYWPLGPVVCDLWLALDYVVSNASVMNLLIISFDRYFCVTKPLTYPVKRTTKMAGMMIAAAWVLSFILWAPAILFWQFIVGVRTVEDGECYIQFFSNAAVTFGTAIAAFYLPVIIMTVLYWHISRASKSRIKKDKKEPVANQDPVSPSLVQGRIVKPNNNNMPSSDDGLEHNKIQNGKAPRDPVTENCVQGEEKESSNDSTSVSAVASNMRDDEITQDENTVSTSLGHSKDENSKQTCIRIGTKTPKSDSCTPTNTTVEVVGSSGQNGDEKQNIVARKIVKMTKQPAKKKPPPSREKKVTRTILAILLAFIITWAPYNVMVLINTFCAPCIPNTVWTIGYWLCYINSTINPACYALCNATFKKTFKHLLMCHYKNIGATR
Put plainly: Functional M2-GIRK1/4 activation test: allosteric potency (EC50) and efficiency at EC20 acetylcholine. In kind it is cell-based. The note with it: CHO-DUKX-M2-GIRK cells; for pEC50: voltage-sensitive dye, acetylcholine at EC20, in some cases mean of two or more determinations; for Efficiency / Emax: boosting of the acetylcholine effect at EC20 acetylcholine concentration. The procedure, abridged:
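CHO-DUKX cells stably expressing human M2 and GIRK1/4; membrane potential tracked with voltage-sensitive dye at room temperature. Compound added 50 s before acetylcholine at its EC20, then hyperpolarization read 60 s. EC50 (allosteric potency) and efficiency (boost of EC20 ACh effect) from 4-parameter Hill fit.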

Experiment [2] concerns the target T1, human M2 receptor. Put plainly: Functional M2-GIRK1/4 activation test: positive cooperativity (α factor), shift of acetylcholine dose-response curve. The note with it: Allosteric EC50 shift of acetylcholine 8-point dose-response curve; CHO-DUKX-M2-GIRK cells; α>1 = positive cooperativity. The class given is cell-based. From the text:
The binding of orthosteric agonists (endogenous ligand: acetylcholine) to the M2 receptor leads to receptor activation or a change in conformation of the receptor in the manner of a shift in equilibrium in favour of the active receptor conformation.
The agonist-induced change in conformation of the M2 receptor results in a Gαi protein activation. […] Under physiological conditions, the result is then a selective efflux of potassium from the cell along the electrochemical gradient. […] The extent of hyperpolarization can therefore be regarded as a measure of the activation of the M2 receptor.
The test cell used is a recombinant CHO-DUKX cell line which has been stably transfected with cDNA coding for the human M2 receptor and with cDNA coding for both GIRK1/4 subunits (CHO-DUKX-M2-GIRK). The transmembrane potential, or the relative changes in the transmembrane potential as a function of substance addition or M2 activation, is determined by means of a voltage-sensitive dye (FLIPR Membrane Potential Assay Kit Blue, Molecular Devices #R8034) and the measurement of cell fluorescence using a proprietary fluorescence imaging instrument.
In accordance with the desired test concentrations, the substances were pre-diluted in loading buffer (see above).
The sowing medium consisted of MEM alpha medium (supplemented with 5% PCS, 2% Glutamax, no genticin).
For the particular measurement, the medium was removed and the cells were laden with the volt-age-sensitive dye for at least 6 min at room temperature (30 μl of loading buffer per 384-well). This was followed, in a first measurement, by the determination of the resting transmembrane potential for a period of 5 sec in 1 sec increments. Thereafter, 10 μl in each case of the test substances diluted in loading buffer are added, followed by a second measurement to determine the transmembrane potential for a period of 50 sec in 1 sec increments.
Finally, the cells are admixed with 10 μl of agonist solution (acetylcholine dissolved in loading buffer). In contrast to the EC50 determination of the test substances (see B-1.1), however, this is not done using one acetylcholine concentration; instead, every concentration of the test substance is combined with an acetylcholine 8-point dose-response curve. […] The M2-mediated GIRK1/4 activation or hyperpolarization is then monitored in a third measurement over a period of 60 sec in 1 sec increments. The shift in the acetylcholine dose-response curve in the presence of increasing concentrations of the test substance is analysed and quantified by means of GraphPad PRISM (Allosteric EC50 shift). […] Positive cooperativity is the hallmark of a positive allosteric modulator. […] The greater the magnitude of the α value, the greater the extent of cooperativity between orthosteric and allosteric.

As to `CC(C)(NC(=O)c1cn(-c2c(F)cc(F)cc2Cl)c2nc(N3C[C@@H](O)[C@H](O)C3)c(F)cc2c1=O)C(F)F` (single isomer, unassigned) [Example 143], on human M2 receptor [1], the pEC50 – broadly, the EC50 on a negative log10 scale, so that one unit is a factor of ten – was 8.82 and the Efficiency is 94%. Further, on human M2 receptor [2], the “Cooperativity (alpha factor)” value is listed as 40.

As to `CC(NC(=O)c1cn(-c2c(F)cc(F)cc2F)c2nc(N3CCC(O)C(O)C3)c(F)cc2c1=O)C(F)(F)C(F)(F)F` (single isomer, unassigned) [Example 182, 7-(3,4-Dihydroxypiperidin-1-yl)-6-fluoro-4-oxo-N-(3,3,4,4,4-pentafluorobutan-2-yl)-1-(2,4,6-trifluorophenyl)-1,4-dihydro-1,8-naphthyridine-3-carboxamide], at human M2 receptor [1], the pEC50 is 8.06 and the Emax – broadly, the maximal effect, on the per cent scale that the assay sets – is 100%. In addition, the “Cooperativity (alpha factor)” value on human M2 receptor [2] is given as 27.

On human M2 receptor [1], `CC(NC(=O)c1cn(-c2c(F)cc(F)cc2F)c2nc(N3CCC[C@@H]3CO)c(F)cc2c1=O)C(F)(F)C(F)(F)F` (single isomer, unassigned) [Example 184] gave a pEC50 of 8.35 and an Emax of 90%. Also, the “Cooperativity (alpha factor)” value at human M2 receptor [2] came out at 24.

With `CC(NC(=O)c1cn(-c2c(F)cc(F)cc2F)c2nc(N3CCCC[C@@H]3CO)c(F)cc2c1=O)C(F)(F)C(F)(F)F` (single isomer, unassigned) [Example 185], on human M2 receptor [1], the pEC50 was 8.19 and the Emax is 83%. Besides, at human M2 receptor [2], the “Cooperativity (alpha factor)” value is 13.

On human M2 receptor [1], `CC(NC(=O)c1cn(-c2c(F)cc(F)cc2F)c2nc(N3CCC(O)(CO)CC3)c(F)cc2c1=O)C(F)(F)C(F)(F)F` (single isomer, unassigned) [Example 186, 6-Fluoro-7-[4-hydroxy-4-(hydroxymethyl)piperidin-1-yl]-4-oxo-N-[3,3,4,4,4-pentafluorobutan-2-yl]-1-(2,4,6-trifluorophenyl)-1,4-dihydro-1,8-naphthyridine-3-carboxamide] had a pEC50 of 8.24 and an Emax of 87%. The “Cooperativity (alpha factor)” value on human M2 receptor [2] is listed as 20.

As to `O=C(NC(C1CC1)C(F)(F)C(F)(F)F)c1cn(-c2c(F)cc(F)cc2F)c2nc(N3C[C@@H](O)[C@H](O)C3)c(F)cc2c1=O` (single isomer, unassigned) [Example 201], at human M2 receptor [1], the pEC50 was 8.80 and the Emax turned out to be 100%. Further, the “Cooperativity (alpha factor)” value on human M2 receptor [2] came to 39.

As to `O=C(NC(C1CC1)C(F)(F)C(F)(F)F)c1cn(-c2c(F)cc(F)cc2F)c2nc(N3CC(CO)(CO)C3)c(F)cc2c1=O` (single isomer, unassigned) [Example 205, 7-[3,3-bis(hydroxymethyl)azetidin-1-yl]-N-[1-cyclopropyl-2,2,3,3,3-pentafluoropropyl]-6-fluoro-4-oxo-1-(2,4,6-trifluorophenyl)-1,4-dihydro-1,8-naphthyridine-3-carboxamide], at human M2 receptor [1], the pEC50 was 8.51 and the Emax is 100%. Moreover, the “Cooperativity (alpha factor)” value at human M2 receptor [2] came to 25.

Regarding `O=C(NC(C1CC1)C(F)(F)C(F)(F)F)c1cn(-c2c(F)cc(F)cc2F)c2nc(N3CC(CO)(CO)C3)c(F)cc2c1=O` (single isomer, unassigned) [Example 207, 7-[3,3-bis(hydroxymethyl)azetidin-1-yl]-N-[1-cyclopropyl-2,2,3,3,3-pentafluoropropyl]-6-fluoro-4-oxo-1-(2,4,6-trifluorophenyl)-1,4-dihydro-1,8-naphthyridine-3-carboxamide], at human M2 receptor [1], the pEC50 was 8.48 and the Efficiency was determined as 100%. For the same compound, the “Cooperativity (alpha factor)” value on human M2 receptor [2] was found to be 24.

At human M2 receptor [1], `C[C@H](NC(=O)c1cn(-c2c(F)cc(F)cc2Cl)c2nc(N3C[C@@H](O)[C@H](O)C3)c(F)cc2c1=O)C(F)(F)F` (single isomer, unassigned) [Example 226] gave a pEC50 of 8.17 and an Efficiency of 93%. On human M2 receptor [2], the “Cooperativity (alpha factor)” value was 31.

On human M2 receptor [1], `C[C@@H](NC(=O)c1cn(-c2c(F)cc(F)cc2Cl)c2nc(N3C[C@@H](O)[C@H](O)C3)c(F)cc2c1=O)C(F)(F)F` (single isomer, unassigned) [Example 228] had a pEC50 of 8.19 and an Efficiency of 93%. Besides, the “Cooperativity (alpha factor)” value on human M2 receptor [2] is 33.

At human M2 receptor [1], `CC(C)C[C@H](NC(=O)c1cn(-c2c(F)cc(F)cc2F)c2nc(N3CC(O)[C@H](O)C3)c(F)cc2c1=O)C(F)(F)F` (stereo in doubt) [Example 11, 7-[(3R,4S)-3,4-dihydroxypyrrolidin-1-yl]-6-fluoro-4-oxo-N-[(2S)-1,1,1-trifluoro-4-methylpentan-2-yl]-1-(2,4,6-trifluorophenyl)-1,4-dihydro-1,8-naphthyridine-3-carboxamide] had a pEC50 of 8.24 and an Emax of 100%. Besides, the “Cooperativity (alpha factor)” value at human M2 receptor [2] was determined as 60.

For `CC(C)(CC(F)(F)F)NC(=O)c1cn(-c2c(F)cccc2F)c2nc(N3C[C@@H](O)[C@H](O)C3)c(F)cc2c1=O` [Example 1, 1-(2,6-Difluorophenyl)-7-[(3R,4R)-3,4-dihydroxypyrrolidin-1-yl]-6-fluoro-4-oxo-N-(4,4,4-tri-fluoro-2-methylbutan-2-yl)-1,4-dihydro-1,8-naphthyridine-3-carboxamide], at human M2 receptor [1], the negative-log EC50 (pEC50) was 7.68 and the Emax came to 92%. Moreover, the “Cooperativity (alpha factor)” value at human M2 receptor [2] came to 35.

At human M2 receptor [1], `CC[C@H](NC(=O)c1cn(-c2c(F)cc(F)cc2F)c2nc(N3C[C@@H](O)[C@H](O)C3)c(F)cc2c1=O)C(F)(F)F` [Example 6, 7-[(3R,4R)-3,4-Dihydroxypyrrolidin-1-yl]-6-fluoro-4-oxo-N-[(2S)-1,1,1-trifluorobutan-2-yl]-1-(2,4,6-trifluorophenyl)-1,4-dihydro-1,8-naphthyridine-3-carboxamide] gave a pEC50 of 8.21 and an Emax of 94%. For the same compound, at human M2 receptor [2], the “Cooperativity (alpha factor)” value came out at 58.

Take `O=C(N[C@@H](C1CC1)C(F)(F)F)c1cn(-c2c(F)cc(F)cc2F)c2nc(N3C[C@@H](O)[C@H](O)C3)c(F)cc2c1=O` [Example 7, N-[(1S)-1-Cyclopropyl-2,2,2-trifluoroethyl]-7-[(3R,4R)-3,4-dihydroxypyrrolidin-1-yl]-6-fluoro-4-oxo-1-(2,4,6-trifluorophenyl)-1,4-dihydro-1,8-naphthyridine-3-carboxamide]: on human M2 receptor [1], the pEC50 is 8.25 and the Emax is 93%. In addition, the “Cooperativity (alpha factor)” value at human M2 receptor [2] is 57.

In the case of `O=C(NC12CC(C1)C2)c1cn(-c2c(F)cc(F)cc2F)c2nc(N3C[C@@H](O)[C@H](O)C3)c(F)cc2c1=O` [Example 12, N-(bicyclo[1.1.1]pent-1-yl)-7-[(3R,4R)-3,4-dihydroxypyrrolidin-1-yl]-6-fluoro-4-oxo-1-(2,4,6-trifluorophenyl)-1,4-dihydro-1,8-naphthyridine-3-carboxamide], at human M2 receptor [1], the pEC50 is 7.70 and the maximal response (Emax) was determined as 90%. In addition, the “Cooperativity (alpha factor)” value on human M2 receptor [2] came out at 40.

On human M2 receptor [1], `CC(C)(CC(F)(F)F)NC(=O)c1cn(-c2c(F)cc(F)cc2F)c2nc(N3C[C@@H](O)[C@H](O)C3)c(F)cc2c1=O` [Example 13, 7-[(3R,4R)-3,4-dihydroxypyrrolidin-1-yl]-6-fluoro-4-oxo-N-(4,4,4-trifluoro-2-methylbutan-2-yl)-1-(2,4,6-trifluorophenyl)-1,4-dihydro-1,8-naphthyridine-3-carboxamide] had a pEC50 of 8.21 and an Emax of 94%. On human M2 receptor [2], the “Cooperativity (alpha factor)” value came to 49.
